What was measured:
[1] = system: Axin1 protein levels in DLD1 cells; experiment: Western Blotting for Direct and Downstream Targets of TNKS Inhibitors: Axin 1; assay type: cell-based;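 also: compound exposure 20 to 22 hours before lysis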
Procedure: DLD1 cells were assayed for the effect of putative Tankyrase1/2 inhibitors on TNKS1/2, Axin1/2 and β-catenin protein levels. […] Reduction of nuclear accumulation of β-catenin and ultimately, reduction of β-catenin/TCF/LEF transcriptional activation of Wnt target genes should correlate with loss of Wnt-luc reporter signal in the Wnt reporter assay.
DLD1 cells were seeded in a 6-well dish at 10000 cells/well in DMEM supplemented with 10% FBS. […] After washing in TBS-T, the membrane was probed with a species specific secondary antibody conjugated to HRP (1:5000, Pierce/ThermoFisher), washed again in TBS-T and reacted with chemiluminescent detection reagents (ECL, GE Healthcare, cat. no. RPN2109) followed by exposure to X-ray film (FujiFilm XR).

[2] = system: TNKS stabilisation in HeLa, HT1080, HTC75 cells
Procedure: Cells were seeded, dosed and whole cell lysates were isolated and western blotted as described above. Primary antibodies included TNKS (1:1000, Santa Cruz Biotech, cat. no. SC8377).

TNKS1 = TNKS1 (Homo sapiens, UniProt O95271); experiment: TNKS1/PARP Biochemical Assay (TNKS1)
DLD1 cells = experiment: Long-Term Clonogenic Assay (DLD1 cells); assay type: cell-based
Procedure: Clonogenic Inhibition in DLD1 or HT55 Cells
In order to determine the efficacy of chronic dosing of putative TNKS inhibitors, long term clonogenic or ‘colony formation’ assays were carried out. This included the sparse seeding of cells in a 6-well dish followed by continuous dosing of cells over 12-14 days (depending on relative cell growth). Appropriate cell lines (DLD1 or HT55) were seeded at 500 cells/well in a 6-well dish in DMEM supplemented with FBS. […] Dosages were carried out in triplicate. Cell media containing compound or DMSO only was replenished every 48 hours. Termination of the assay included the fixation of cells with trichlororacetic acid (1 mL, 10% (v/v), Sigma Aldrich, cat. no. T6399) and incubation for 16 hours at 4° C. Fixed cells were then washed with water, allowed to dry and stained with sulforhodamine B solution (sulforhodamine B 0.05% (w/v), Sigma Aldrich cat. no. S1402, acetic acid 1% (v/v), Fisher Scientific, cat. no. A/0400/PB17)) for 12 hours at room temperature. The stain was then removed and the cells washed copiously with aqueous acetic acid (1% v/v) and allowed to dry.
The data was normalised to the DMSO control and was expressed as surviving fraction as a function of inhibitor dose.

[3] = system: Wnt activity in DLD1-Wnt-Luc cells; experiment: Wnt-Luciferase Reporter Assay; conditions: read-out: Wnt IC50

Compound | stabilize Axin1 (Western blotting) [1] | stabilize TNKS (Western blotting) [2] | IC50 (TNKS1) [nM] | Clonogenic SF50 (DLD1) (DLD1 cells) [µM] | IC50 [3] [nM]
Cc1cccc2c(=O)[nH]c(-c3ccc(N4CCN(C)CC4)nc3)cc12 [IQ-003] | stabilize Axin1 | stabilize TNKS | 21 | < 2 | 12
CNCCOc1ccc(-c2cc3c(C)cccc3c(=O)[nH]2)cc1 [IQ-127, 5-Methyl-3-[4-(2-methylamino-ethoxy)-phenyl]-2H-isoquinolin-1-one] | stabilize Axin1 | stabilize TNKS | < 50 | < 2 | –
